Data on 3 compounds can be found in US20040209907A1, “Formulation and methods for the treatment of thrombocythemia” (priority 2003, published 2004).

Several values for one entry are separate records, joined by “and”; a condition that tells them apart may be missing. Equal values may be shown once. Read-outs that look alike come from different tables or passages of the source.

For data set [1] the following is noted: dog, in vivo.
Method: (§1) A study was conducted in a large group of dogs comparing metabolite A with the standard reference inotrope milrinone.
For data set [2], the system named is PDE III. Put plainly: PDE III activity of anagrelide and metabolite A. Type of data set: biochemical. Here is the method: Inhibition of PDE III, which is present in myocardium, causes an increase in both the force and rate of cardiac contractility. These are undesirable side effects for a platelet reducing agent.
The PDE III activity of both anagrelide and metabolite A was evaluated by standard methods.

In data set [3] the test system is platelet. In words: Therapeutic platelet lowering action.
The nature of data set [4]: Cardiovascular study in dogs comparing metabolite A with milrinone.
Method: as §1
Data set [5] has as its system CD34+ cells. In words: Megakaryocyte number in thrombopoietin-expanded CD34+ cell cultures. Type of data set: cell-based. The conditions noted are these: for effect on number of megakaryocytes: day-8 cultures; for number of megakaryocytes: day-12 cultures. The source says: Cells were harvested for analysis after 4 or 8 days of the initiation of drug treatment (day-8 and day-12 cultures, respectively). As shown in FIG. 2 in day-8 cultures no effect of anagrelide could be detected.

Data set [6] in a line: Plasma levels of anagrelide and metabolite A after oral, intra-venous and transdermal anagrelide in the mini-pig. It is filed as in vivo. Conditions: for AUC / Cmax: mini-pig n=3, plasma analyte = label. How it is done: The plasma level of anagrelide and metabolite A were measured in a mini-pig study following oral, intra-venous and transdermal administration of anagrelide.
The comparative bioavailability of anagrelide following oral administration of 1 mg or the dermal application of a saturated solution to ˜45 cm2 surface area of the back was assessed in three minipigs. Standard AgrylinR capsules (2×0.5 mg) were administered orally to fasted animals, whereas the dermal formulation was a saturated solution of the drug in 5% (v/v) oleic acid in propylene glycol.
Plasma concentrations of anagrelide and its metabolites were determined by a validated LC-MS/MS assay. Pharmacokinetic parameters were calculated by non-compartmental methods using WinNonlin.
Studies in the Mini-Pig (n=3)

Data set [7] can be described thus: Pharmacokinetics in healthy male volunteers after a single dose of anagrelide. Conditions: healthy male volunteers N=38; single 1 mg oral dose of anagrelide; analyte = label. The source says: Summary of mean Pharmacokinetic Parameters of Anagrelide in Volunteers after a Single Dose of the Drug
A short description of data set [8]: Pharmacokinetics in patients with myeloproliferative disease at steady state. Conditions: patients N=18, multiple dosing, analyte = label.
Data set [9] in a line: Permeation of anagrelide from saturated solutions through human epidermis (Franz-type diffusion cells). It is filed as in vitro ADME. The conditions noted are these: for Amt permeated at 24 hours: human epidermis.
Assay in data set [10]: as above
Type of data set: in vitro ADME. Here is the method: Saturated Solutions of Anagrelide were Prepared in:
1. 5% lauryl alcohol in isopropyl myristate (LA in IPM)
2. 2% oleic acid in propylene glycol (OA in PG)
3. 0.5% oleic acid in propylene glycol
4. 5% glyceryl monooleate in isopropyl myristate (GMO in IPM)
5. 5% glyceryl laurate in isopropyl myristate (GLA in IPM)
9. Isopropyl myristate (IPM)
11. 5% oleic acid (OA) in propylene glycol (PG)
12. 70:30 (v/v) dimethyl sulfoxide: propylene glycol
An analytical method using HPLC with UV detection was established for anagrelide. Six point calibration curves were generated over the range 0.2-2 μg/ml were generated for each analytical run and the precision confirmed on each occasion by the making at least 7 replicate injections of the highest standard. Details of the equipment and methods used are given below.
Human epidermis was prepared by the heat separation technique (A. M. Kligman and E Christophers, Preparation of isolated sheets of human stratum corneum. Arch Dermatol., vol. 88, 70-73 (1963). Water was heated to 60° C. on a hotplate and the skin was immersed in the water at this temperature for 1 minute. The skin was then removed from the water and the epidermis carefully peeled off using blunt tweezers. Care was taken not to introduce any holes in this process. The epidermal tissue was placed on a filter paper stratum corneum uppermost. The samples were then stored in freezer.
Franz-type horizontal glass diffusion cells were used. The receptor medium was thermostatted at 37° C., to represent body temperature. There will be a temperature gradient across the membrane and applied solution, but this should simulate ‘in use’ conditions. Under these conditions the surface temperature of the skin was 32° C.
The skin samples were thawed overnight before use. The epidermal membranes were cut to size and were placed between the two halves of the cells. High vacuum grease was used to seal the two compartments. The cell was clamped using a metal holder. The receptor arm was closed using glass caps to prevent evaporation. The donor compartment was occluded to prevent any donor solution evaporation
The receptor medium was first introduced and equilibrated for 1 h. 1 mL of the saturated solution with excess drug was applied in the donor compartment. Excess drug was used to ensure there is no depletion of the drug during the course of the experiment. The starting time was taken as the time at which the solutions were applied.
At set sampling points (12, 24, 30, 36 and 48 hours), 200 μL of the receptor phase from each diffusion cell was removed for analysis of the anagrelide and replaced by an equivalent of fresh receptor phase solution pre-thermostatted to 37° C.
For each solution, six replicates were tested. A control (without any formulation applied in the donor compartment) was also examined.

[11] abbreviates: anagrelide Dermal, saturated solution in 5% OA in PG, ~45 cm2, 24 h.
Setting [12] is: anagrelide Intra-venous 1 mg/propylene glycol.

On to `O=C1NC2=Nc3ccc(Cl)c(Cl)c3CN2C1O` (stereo not drawn) [Metabolite A], for which, in [1], the “effect on (+)dP/dt max (a measure of contractility)” value was “well sustained and largely dose-dependent”; the “maximum decrease in mean blood pressure” value is “about 30 mmHg”; the “mean maximum increase in heart rate” value is on record as about 66 b.p.m; the “potency relative to milrinone in decreasing mean blood pressure” value is 10 ×. Further, the “potency relative to anagrelide as an inhibitor of PDEIII” value in data set [2] (earlier in vitro studies) came out at 40 fold. For the same compound, the “PDE III potency relative to anagrelide” value in data set [2] (standard methods) was determined as 40 ×. Moreover, in data set [2] (statement), the “potency as a cardiovascular agent relative to anagrelide” value is listed as about 40 times. Besides, the “therapeutic platelet lowering action relative to anagrelide” value in data set [3] is reported as “equipotent”.

In the case of `Cc1[nH]c(=O)c(C#N)cc1-c1ccncc1` [milrinone], the “effect on (+)dP/dt max (a measure of contractility)” value in data set [4] is listed as “immediate, dose-dependent increases in (+)dP/dt max, but they were not well sustained”. Further, in [4] (dose-dependent), the “maximum decrease in mean blood pressure” value is recorded as “about 30 mmHg” and the “mean maximum increase in heart rate” value was about 76 b.p.m.

As to `O=C1CN2Cc3c(ccc(Cl)c3Cl)N=C2N1` [Anagrelide], the “effect on number of megakaryocytes” value in data set [5] (continuous exposure to 4 ng/ml anagrelide (~13 nM)) and in data set [5] (single dose of 40 ng/ml anagrelide (~133 nM)) was “no effect” throughout. Further, the number of megakaryocytes in data set [5] (continuous exposure to 4 ng/ml anagrelide (~13 nM), p=0.038, n=3) is recorded as 77±5 % of control; in data set [5] (single dose of 40 ng/ml anagrelide (~133 nM), p=0.015, n=3) it was 68±4 % if control. The AUC in [6] (setting [11]) came out at 10.8 ng·h/mL; in data set [6] (setting [12]), 50.7 ng·h/mL; in data set [6] (anagrelide Oral 1 mg/capsule), 10.3 ng·h/mL. Besides, the Cmax came out at 0.69 ng/mL in data set [6] (setting [11]), 87.1 ng/mL in data set [6] (setting [12]) and 1.45 ng/mL in [6] (anagrelide Oral 1 mg/capsule). In data set [6] (mini-pig, dermal application), the “decline in concentrations post-peak prior to wash-off at 24 h” value is 50%. Also, the average dermal flux in [6] (mini-pig, dermal saturated solution in 5% oleic acid in propylene glycol, estimated) is 197 ng/cm2/h. In data set [6] (mini-pig, dermal versus oral 1 mg), the “maximum plasma concentration lower following dermal application versus oral” value was 50%. For the same compound, the “exposure to anagrelide, dermal versus oral route” value in data set [6] (mini-pig, oral 1 mg versus dermal saturated solution) was “comparable exposure”. Further, in data set [7], the “AUC0-inf ± RSD (%)” value was 11.1 ± 37.6 ng·h/mL. Moreover, the “Cmax ± RSD (%)” value in data set [7] worked out at 4.99 ± 74.4 ng/mL. For the same compound, in data set [7], the “Tmax ± RSD (%)” value was determined as 1.3 ± 53.8 h. Also, in data set [7], the “t1/2 ± RSD (%)” value stood at 1.5 ± 49.8 h. The “AUC0-t ± RE (AUC over dosage interval)” value in data set [8] is listed as 18.64(5.28) ng · h/mL. Also, the “Cmax ± RE” value in [8] was 5.31(1.33) ng/mL. Also, the “Tmax ± RE” value in [8] was 2.00(0.32) hours. Moreover, the “t1/2 ± RE” value in data set [8] is on record as 2.89(0.73) hours. Besides, in [9] (calculated for transdermal delivery in man), the “Cav from the maximum likely flux rate through human skin” value was 3 to 4 ng/mL. Also, the “Amt permeated at 24 hours” value in data set [9] (saturated solution in 0.5% OA in PG) amounted to 0.5 μg/cm^2; in [9] (saturated solution in 70:30 DMSO:PG ('gold standard')) it was 8.4 μg/cm^2; in [9] (saturated solution in 70:30 DMSO:PG ('gold standard'), listed as anagrelide) it was 8.41 μg/cm^2; in [9] (saturated solution in Ethanol), 0.9 μg/cm^2; in data set [9] (saturated solution in Formulation 1 (Labrasol, Plurol Oleique, Labrafac Lipophile, propylene glycol)) it was 2.1 μg/cm^2; in data set [9] (saturated solution in Formulation 2 (Labrafil M 1944CS, Labrafac Lipophile, Labrasol, Plurol oleique, water)) it was 1.5 μg/cm^2. For the same compound, the “Amt permeated at 24 hours” value in [9] (saturated solution in Glycerol) was 0.04 μg/cm^2; in data set [9] (saturated solution in PG (propylene glycol)), 0.5 μg/cm^2 and 0.54 μg/cm^2; in data set [9] (saturated solution in PG (propylene glycol), listed as anagrelide), 0.5 μg/cm^2; in data set [9] (saturated solution in Transcutol), 0.0 μg/cm^2 and 0 μg/cm^2; in data set [9] (saturated solution in Triacetin) it was 0.0 μg/cm^2 and 0 μg/cm^2; in [10] (saturated solution in 2% OA in PG) it was 8.9 μg/cm^2. The “Amt permeated at 24 hours” value in data set [10] (saturated solution in 5% GLA in IPM) is listed as 5.2 μg/cm^2; in data set [10] (saturated solution in 5% GMO in IPM), 5.7 μg/cm^2; in data set [10] (saturated solution in 5% LA in IPM), 0.5 μg/cm^2; in data set [10] (saturated solution in 5% OA in PG) it was 4.4 μg/cm^2; in [10] (saturated solution in IPM (isopropyl myristate)), 1.5 μg/cm^2.

As usually defined, the AUC is concentration integrated over time. As usually defined, the Cmax is the highest concentration seen after dosing.
